In patent US7727988B2, “Azabicyclo[3.1.0]hex-3-yl}alkyl)pyrimidinedione” (Glaxo Group Limited, priority 2006, dated 2010):

These compounds were tested against T1, dopamine D3 receptor (Homo sapiens, UniProt P35462) (assay: GTPS scintillation proximity assay (GTPS-SPA), CHO_D3 membranes, antagonist format). Conditions: not given.
T1 construct: host or cells: Chinese Hamster Ovary (CHO) cells, membranes
Assay type: biochemical
Experimental: (§1) Functional potency of compounds of this invention can be measured by the following GTPS scintillation proximity assay (GTPS-SPA). Cells used in the study are Chinese Hamster Ovary (CHO) Cells. • Cell Line • CHO_D2 • CHO_D3 • Dopamine CHO D3 (Biocat no 1060) transduced with bacmam G0 G-protein (Biocat no 97886)
(§2) All steps are performed at 4° C. Cell membranes are prepared as follows. Cell pellets are resuspended in 10 volumes of 50 mM HEPES, 1 mM EDTA pH 7.4, using KOH. Cells are homogenised within a glass waring blender for 2 bursts of 15 secs in 200 mls of buffer (50 mM HEPES, 1 mM leupeptin, 25 μg/ml bacitracin, 1 mM EDTA, 1 mM PMSF, 2 μM Pepstatin A). (the latter 2 reagents added as fresh ×100 and ×500 stocks respectively in ethanol). The blender is plunged into ice for 5 mins after the first burst and 10-40 mins after the final burst to allow foam to dissipate. The material is then spun at 500 g for 20 mins and the supernatant spun for 36 mins at 48.000 g. The pellet is resuspended in the same buffer as above but without PMSF and Pepstatin A. The material is then forced through a 0.6 mm needle, made up to the required volume, (usually ×4 the volume of the original cell pellet), aliquoted and stored frozen at −80° C.
(§3) The final top concentration of test drug is 3 μM in the assay and 11 points serial dilution curves 1:4 in 100% DMSO are carried out using a Biomek FX. The test drug at 1% (0.5 ul) total assay volume (TAV) is added to a solid, white Greiner polypropylene 384-well assay plate. 50% TAV (25 μl) of precoupled (for 60 mins at RT) membranes, 5 μg/well, and Wheatgerm Agglutinin Polystyrene Scintillation Proximity Assay beads (RPNQ0260, Amersham), 0.25 mg/well, in 20 mM HEPES (pH 7.4, 100 mM NaCl, 10 mM MgCl2), 60 μg/mL saponin and 30 uM GDP is added. The third addition is a 20% TAV (10 ul) addition of either buffer, (agonist format) or EC80 final assay concentration of agonist, Quinelorane, prepared in assay buffer (antagonist format). The assay is started by the addition of 29% TAV (15 ul) of GTP[35S] 0.38 nM final (37 MBq/mL, 1160 Ci/mmol, Amersham). After all additions assay plates are spun down for 1 min at 1,000 rpm. The final assay cocktail ([…]) is incubated at room temperature to equilibrate for 3-6 hours before reading on a ViewLux™ (613/55 filter) luminescence imager 5 min/plate.
(§4) The effect of the test drug over the basal generates fpKi values of test drug are calculated from the IC50 generated by “antagonist format” experiment, using Cheng & Prusoff equation: fKi=IC50/1+([A]/EC50) where: [A] is the concentration of the agonist Quinelorane in the assay and EC50 is the Quinelorane EC50 value obtained in the same experiment. fpKi is defined as −logfKi. • pKi results are only estimated to be accurate to about 0.3-0.5.

T1 sequence (P35462 whole entry, species assumed): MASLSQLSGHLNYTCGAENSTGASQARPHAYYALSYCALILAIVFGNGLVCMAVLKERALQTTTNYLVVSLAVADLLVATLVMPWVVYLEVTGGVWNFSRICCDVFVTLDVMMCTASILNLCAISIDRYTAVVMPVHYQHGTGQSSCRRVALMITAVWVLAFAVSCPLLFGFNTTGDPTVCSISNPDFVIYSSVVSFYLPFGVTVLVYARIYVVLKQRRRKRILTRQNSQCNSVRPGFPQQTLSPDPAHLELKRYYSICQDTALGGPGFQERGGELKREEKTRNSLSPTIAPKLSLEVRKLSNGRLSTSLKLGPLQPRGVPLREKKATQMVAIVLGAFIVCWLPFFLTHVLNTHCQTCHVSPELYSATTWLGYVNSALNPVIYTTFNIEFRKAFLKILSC

| Selectivity for D3 over D2 receptors [fold] | Structure (SMILES) |
| --- | --- |
| 199 | Cl.O=c1[nH]c(=O)n(CCCN2C[C@@H]3C[C@]3(c3ccc(C(F)(F)F)cc3)C2)cc1-c1ccccc1 [Example E9, 5-phenyl-1-(3-{(1S,5R)-1-[4-(trifluoromethyl)phenyl]-3-azabicyclo-[3.1.0]hex-3-yl}propyl)-2,4(1H,3H)-pyrimidinedione hydrochloride] |
| 251 | Cl.Cl.O=c1[nH]c(=O)n(CCCN2C[C@@H]3C[C@]3(c3ccc(C(F)(F)F)cc3)C2)cc1-c1cccnc1 [Example E27, 5-(3-pyridinyl)-1-(3-{(1S,5R)-1-[4-(trifluoromethyl)phenyl]-3-azabicyclo[3.1.0]hex-3-yl}propyl)-2,4(1H,3H)-pyrimidinedione dihydrochloride] |
| 100 | Cl.O=c1[nH]c(=O)n(CCCN2C[C@@H]3C[C@]3(c3ccc(C(F)(F)F)cc3)C2)cc1-c1cccs1 [Example E8, 5-(2-thienyl)-1-(3-{(1S,5R)-1-[4-(trifluoromethyl)phenyl]-3-azabicyclo[3.1.0]hex-3-yl}propyl)-2,4(1H,3H)-pyrimidinedione hydrochloride] |
| 100 | Cc1ccsc1-c1cn(CCCCN2C[C@@H]3C[C@]3(c3ccc(C(F)(F)F)cc3)C2)c(=O)[nH]c1=O.Cl [Example E16, 5-(3-methyl-2-thienyl)-1-(4-{(1S,5R)-1-[4-(trifluoromethyl)phenyl]-3-azabicyclo[3.1.0]hex-3-yl}butyl)-2,4(1H,3H)-pyrimidinedione hydrochloride] |
| 316 | Cc1cc(-c2cn(CCCCN3C[C@@H]4C[C@]4(c4ccc(C(F)(F)F)cc4)C3)c(=O)[nH]c2=O)ccn1.Cl.Cl [Example E28, 5-(2-methyl-4-pyridinyl)-1-(4-{(1S,5R)-1-[4-(trifluoromethyl)phenyl]-3-azabicyclo[3.1.0]hex-3-yl}butyl)-2,4(1H,3H)-pyrimidinedione dihydrochloride] |
| 199 | Cc1cccc(-c2cn(CCCN3C[C@@H]4C[C@]4(c4ccc(C(F)(F)F)cc4)C3)c(=O)[nH]c2=O)n1.Cl.Cl [Example E30, 5-(6-methyl-2-pyridinyl)-1-(3-{(1S,5R)-1-[4-(trifluoromethyl)phenyl]-3-azabicyclo[3.1.0]hex-3-yl}propyl)-2,4(1H,3H)-pyrimidinedione dihydrochloride] |

The compounds below were run against T2, dopamine D2 receptor (Homo sapiens, UniProt P14416) (assay: GTPS scintillation proximity assay (GTPS-SPA), CHO_D2 membranes). Conditions: up to the highest concentration tested in the assay (3 μM).
T2 construct: expressed in transfected cells; host or cells: Chinese Hamster Ovary (CHO) cells, membranes
Assay type: biochemical
Experimental: as §1, §2, §3, §4

T2 sequence (P14416 whole entry): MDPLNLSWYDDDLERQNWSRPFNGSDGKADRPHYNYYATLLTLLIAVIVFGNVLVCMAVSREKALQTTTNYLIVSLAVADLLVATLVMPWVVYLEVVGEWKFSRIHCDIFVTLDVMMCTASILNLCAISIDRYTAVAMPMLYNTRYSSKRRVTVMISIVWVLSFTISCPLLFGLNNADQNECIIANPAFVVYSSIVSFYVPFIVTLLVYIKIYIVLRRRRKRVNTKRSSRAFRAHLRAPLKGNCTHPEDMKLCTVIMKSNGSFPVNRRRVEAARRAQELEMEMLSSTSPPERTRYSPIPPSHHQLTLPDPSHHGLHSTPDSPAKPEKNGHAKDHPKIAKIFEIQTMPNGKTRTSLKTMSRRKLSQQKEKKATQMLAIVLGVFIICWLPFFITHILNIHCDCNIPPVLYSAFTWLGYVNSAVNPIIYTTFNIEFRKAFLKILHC

| Structure (SMILES) | activity in the D2 GTPS-SPA assay |
| --- | --- |
| Cl.O=c1[nH]c(=O)n(CCCN2C[C@@H]3C[C@]3(c3ccc(C(F)(F)F)cc3F)C2)cc1-c1cccs1 [Example E12, 1-(3-{(1S,5R)-1-[2-fluoro-4-(trifluoromethyl)phenyl]-3-azabicyclo[3.1.0]hex-3-yl}propyl)-5-(2-thienyl)-2,4(1H,3H)-pyrimidinedione hydrochloride] | no activity |
| Cl.Cl.O=c1[nH]c(=O)n(CCCN2C[C@@H]3C[C@]3(c3ccc(C(F)(F)F)cc3)C2)cc1-c1ccc(F)nc1 [Example E20, 5-(6-fluoro-3-pyridinyl)-1-(3-{(1S,5R)-1-[4-(trifluoromethyl)phenyl]-3-azabicyclo[3.1.0]hex-3-yl}propyl)-2,4(1H,3H)-pyrimidinedione dihydrochloride] | no activity |
| Cl.O=c1[nH]c(=O)n(CCCN2C[C@@H]3C[C@]3(c3ccc(C(F)(F)F)cc3)C2)cc1-c1cccnn1 [Example E26, 5-(3-pyridazinyl)-1-(3-{(1S,5R)-1-[4-(trifluoromethyl)phenyl]-3-azabicyclo[3.1.0]hex-3-yl}propyl)-2,4(1H,3H)-pyrimidinedione hydrochloride] | no activity |
| Cl.N#Cc1cn(CCCCN2C[C@@H]3C[C@]3(c3ccc(C(F)(F)F)cc3)C2)c(=O)[nH]c1=O [Example E18, 2,4-dioxo-1-(4-{(1S,5R)-1-[4-(trifluoromethyl)phenyl]-3-azabicyclo[3.1.0]hex-3-yl}butyl)-1,2,3,4-tetrahydro-5-pyrimidinecarbonitrile hydrochloride] | no activity |
| Cc1cc(-c2cn(CCCN3C[C@@H]4C[C@]4(c4ccc(C(F)(F)F)cc4)C3)c(=O)[nH]c2=O)ccn1.Cl [Example E23, 5-(2-methyl-4-pyridinyl)-1-(3-{(1S,5R)-1-[4-(trifluoromethyl)phenyl]-3-azabicyclo[3.1.0]hex-3-yl}propyl)-2,4(1H,3H)-pyrimidinedione hydrochloride] | no activity |
| Cl.O=c1[nH]c(=O)n(CCCN2C[C@@H]3C[C@]3(c3ccc(C(F)(F)F)cc3)C2)cc1C(F)(F)F [Example E13, 5-(trifluoromethyl)-1-(3-{(1S,5R)-1-[4-(trifluoromethyl)phenyl]-3-azabicyclo[3.1.0]hex-3-yl}propyl)-2,4(1H,3H)-pyrimidinedione hydrochloride] | no activity |

Next, values leading:

| activity in the D2 GTPS-SPA assay | Structure (SMILES) |
| --- | --- |
| no activity | Cc1nc(C)c(-c2cn(CCCCN3C[C@@H]4C[C@]4(c4ccc(C(F)(F)F)cc4)C3)c(=O)[nH]c2=O)o1.Cl [Example E42, 5-(2,4-dimethyl-1,3-oxazol-5-yl)-1-(4-{(1S,5R)-1-[4-(trifluoromethyl)phenyl]-3-azabicyclo[3.1.0]hex-3-yl}butyl)-2,4(1H,3H)-pyrimidinedione hydrochloride] |
| no activity | Cc1cc(F)ccc1-c1cn(CCCN2C[C@@H]3C[C@]3(c3ccc(C(F)(F)F)cc3)C2)c(=O)[nH]c1=O [Example E51, 5-(4-fluoro-2-methylphenyl)-1-(3-{(1S,5R)-1-[4-(trifluoromethyl)phenyl]-3-azabicyclo[3.1.0]hex-3-yl}propyl)-2,4(1H,3H)-pyrimidinedione] |
| no activity | Cc1ccc(-c2cn(CCCN3C[C@@H]4C[C@]4(c4ccc(C(F)(F)F)cc4)C3)c(=O)[nH]c2=O)c(Cl)n1.Cl.Cl [Example E63, 5-(2-chloro-6-methyl-3-pyridinyl)-1-(3-{(1S,5R)-1-[4-(trifluoromethyl)phenyl]-3-azabicyclo[3.1.0]hex-3-yl}propyl)-2,4(1H,3H)-pyrimidinedione dihydrochloride] |
| no activity | Cl.Cl.O=c1[nH]c(=O)n(CCCN2C[C@@H]3C[C@]3(c3ccc(C(F)(F)F)cc3F)C2)cc1-c1cccnc1F [Example E48, 5-(2-fluoro-3-pyridinyl)-1-(3-{(1S,5R)-1-[2-fluoro-4-(trifluoromethyl)phenyl]-3-azabicyclo[3.1.0]hex-3-yl}propyl)-2,4(1H,3H)-pyrimidinedione dihydrochloride] |
| no activity | Cc1ccccc1-c1cn(CCCN2C[C@@H]3C[C@]3(c3ccc(C(F)(F)F)cc3)C2)c(=O)[nH]c1=O.Cl [Example E31, 5-(2-methylphenyl)-1-(3-{(1S,5R)-1-[4-(trifluoromethyl)phenyl]-3-azabicyclo[3.1.0]hex-3-yl}propyl)-2,4(1H,3H)-pyrimidinedione hydrochloride] |
| no activity | Cc1ccc(-c2cn(CCCN3C[C@@H]4C[C@]4(c4ccc(C(F)(F)F)cc4)C3)c(=O)[nH]c2=O)c(F)n1.Cl.Cl [Example E35, 5-(2-fluoro-6-methyl-3-pyridinyl)-1-(3-{(1S,5R)-1-[4-(trifluoromethyl)phenyl]-3-azabicyclo[3.1.0]hex-3-yl}propyl)-2,4(1H,3H)-pyrimidinedione dihydrochloride] |
| no activity | Cc1cc(Cl)ccc1-c1cn(CCCN2C[C@@H]3C[C@]3(c3ccc(C(F)(F)F)cc3)C2)c(=O)[nH]c1=O [Example E53, 5-(4-chloro-2-methylphenyl)-1-(3-{(1S,5R)-1-[4-(trifluoromethyl)phenyl]-3-azabicyclo[3.1.0]hex-3-yl}propyl)-2,4(1H,3H)-pyrimidinedione] |
